Here are results for five molecules from patent publication US5770597A, “Quinolone derivatives and processes for preparing the same” (Korea Research Institute of Chemical Technology, priority 1993, dated 1998).

Usually MIC stands for the least concentration at which growth counts as inhibited.

The structures appear in SMILES notation. In brackets after ≈: the same amount, converted by molar mass. Read-outs that look alike come from different tables or passages of the source. A value given as a limit tells only on which side of the number the result lay.

The test system of assay [1] is Pseudomonas aeruginosa 1592E. Briefly: In vitro antibacterial activity (MIC), agar two-fold dilution. The class given is cell-based. The procedure: (§1) The numbers in Tables represent the minimal inhibitory concentration (MIC, μg/ml) of the corresponding strains and MIC was determined in accordance with the agar culture medium two-fold dilution method by using a Mueller-Hinton agar.
(§2) Hoechst standard strains were used. […]

Assay [2] relates to Pseudomonas aeruginosa 9027. Described as above. It is filed as cell-based. The procedure:
as §1, §2

Assay [3] relates to Streptococcus pyogenes 77A. Described as above. The class given is cell-based. As to the method:
as §1, §2

Assay [4] has as its system Staphylococcus aureus 285. The assay is described as above. The class given is cell-based. As to the method:
as §1, §2

Assay [5] deals with Staphylococcus aureus SG 511. The assay is described as above. It is filed as cell-based. The procedure:
as §1, §2

In assay [6] the test system is Streptococcus pyogenes 308A. Described as above. The class given is cell-based. The procedure:
as §1, §2

Assay [7] relates to Staphylococcus aureus 503. Described as above. The class given is cell-based. As to the method: as §1, §2
For a further assay, the system named is Salmonella typhimurium. The assay is described as above. The class given is cell-based. As to the method:
as §1, §2

Assay [8] has as its system Klebsiella aerogenes 1552E. Described as above. The class given is cell-based. As to the method: as §1, §2
Assay [9] concerns Streptococcus faecium MD 8b. Described as above. It is filed as cell-based. As to the method: as §1, §2
Assay [10] relates to Pseudomonas aeruginosa 1771. The assay is described as above. The class given is cell-based. The procedure: as §1, §2
Assay [11] concerns Klebsiella aerogenes 1082E. The assay is described as above. The class given is cell-based. As to the method:
as §1, §2

The next assay concerns Escherichia coli O 78. The assay is described as above. The note with it: 10^7 CFU/ml, 37° C., 18 hours. The class given is cell-based. The procedure: as §1, §2
Assay [12] relates to Enterobacter cloacae P 99. The class given is cell-based. The note with it: Mueller-Hinton agar, 10^7 CFU/ml, 37° C., 18 hours. The procedure: as §1
(§3) Hoechst standard strains were used.

Assay [13] deals with Enterobacter cloacae 1321E. Briefly: In vitro antibacterial activity (MIC), agar two-fold dilution. It is filed as cell-based. The note with it: Mueller-Hinton agar, 10^7 CFU/ml, 37° C., 18 hours. As to the method: as §1, §3
For another assay, the system named is Escherichia coil TEM. Described as above. The class given is cell-based, Escherichia coli. The procedure: as §1, §2
The next assay deals with Escherichia coil DC 2. Described as above. It is filed as cell-based, Escherichia coli. The procedure:
as §1, §2

In a further assay the test system is Escherichia coil 1507E. Described as above. It is filed as cell-based, Escherichia coli. The note with it: Mueller-Hinton agar, 10^7 CFU/ml, 37° C., 18 hours. The procedure: as §1, §2
Another assay has as its system Escherichia coil DC 0. Described as above. The class given is cell-based, Escherichia coli. As to the method:
as §1, §2

The subject of assay [14] is Pseudomonas aeruginosa 1771M. The assay is described as above. It is filed as cell-based. The note with it: 18 h. The procedure: as §1, §2
Where [15] appears, read: Pseudomonas aeruginosa 1592E, Mueller-Hinton agar, 10^7 CFU/ml, 37° C., 18 hours.
[16] abbreviates: Pseudomonas aeruginosa 9027, Mueller-Hinton agar, 10^7 CFU/ml, 37° C., 18 hours.
The mark [17] stands for this setting: Streptococcus pyogenes 77A, Mueller-Hinton agar, 10^7 CFU/ml, 37° C., 18 hours.
The mark [18] stands for this setting: Staphylococcus aureus 285, Mueller-Hinton agar, 10^7 CFU/ml, 37° C., 18 hours.
Where [19] appears, read: Staphylococcus aureus SG 511, Mueller-Hinton agar, 10^7 CFU/ml, 37° C., 18 hours.
Setting [20] is: Streptococcus pyogenes 308A, Mueller-Hinton agar, 10^7 CFU/ml, 37° C., 18 hours.
Where [21] appears, read: Staphylococcus aureus 503, Mueller-Hinton agar, 10^7 CFU/ml, 37° C., 18 hours.
The mark [22] stands for this setting: Salmonella typhimurium, Mueller-Hinton agar, 10^7 CFU/ml, 37° C., 18 hours.
Setting [23] is: Klebsiella aerogenes 1552E, Mueller-Hinton agar, 10^7 CFU/ml, 37° C., 18 hours.
The mark [24] stands for this setting: Streptococcus faecium MD 8b, Mueller-Hinton agar, 10^7 CFU/ml, 37° C., 18 hours.
[25] abbreviates: Pseudomonas aeruginosa 1771, Mueller-Hinton agar, 10^7 CFU/ml, 37° C., 18 hours.
Setting [26] is: Klebsiella aerogenes 1082E, Mueller-Hinton agar, 10^7 CFU/ml, 37° C., 18 hours.
The mark [27] stands for this setting: Escherichia coil TEM, Mueller-Hinton agar, 10^7 CFU/ml, 37° C., 18 hours.
The mark [28] stands for this setting: Escherichia coil DC 2, Mueller-Hinton agar, 10^7 CFU/ml, 37° C., 18 hours.
The mark [29] stands for this setting: Escherichia coil DC 0, Mueller-Hinton agar, 10^7 CFU/ml, 37° C., 18 hours.

`Cl.O=C(C[N+](=O)[O-])c1cn(C2CC2)c2c(Cl)c(N3CC4CCCNC4C3)c(F)cc2c1=O` (racemic) [B, 1-cyclopropyl-3-nitroacetyl-6-fluoro-8-chloro-7-[(trans-piperidinopyrrolidine)-8-yl]-4-oxo-1,4-dihydroquinoline hydrochloride]: the MIC in assay [1] (setting [15]) came out at 0.781 mg/L; in assay [2] (setting [16]), 0.781 mg/L; in assay [3] (setting [17]), 0.195 mg/L; in assay [4] (setting [18]), 0.098 mg/L; in assay [5] (setting [19]), 0.098 mg/L; in [6] (setting [20]), 0.781 mg/L. The minimum inhibitory concentration (MIC) in [7] (setting [21]) was 0.195 mg/L; against Salmonella typhimurium (setting [22]) it was 0.049 mg/L; in [8] (setting [23]), 0.098 mg/L; in assay [9] (setting [24]), 0.195 mg/L; in [10] (setting [25]) it was 1.563 mg/L; in assay [11] (setting [26]), 0.098 mg/L. The MIC in the assay with Escherichia coli O 78 (Mueller-Hinton agar) is less than 0.025 mg/L; in [12], 0.025 mg/L; in assay [13] it was 0.013 mg/L; against Escherichia coil TEM (setting [27]) it was 0.049 mg/L; in the assay with Escherichia coil DC 2 (setting [28]), 0.098 mg/L; with Escherichia coil 1507E it was 0.049 mg/L. The MIC with Escherichia coil DC 0 (setting [29]) came to 0.391 mg/L.
With `COc1c(N2CC3CCCNC3C2)c(F)cc2c(=O)c(C(=O)C[N+](=O)[O-])cn(C3CC3)c12.Cl` (racemic) [C, 1-cyclopropyl-3-nitroacetyl-6-fluoro-8-methoxy-7-[(trans-piperidinopyrrolidine)-8-yl]-4-oxo-1,4-dihydroquinoline hydrochloride], the minimal inhibitory concentration (MIC) in [1] (setting [15]) was determined as 0.781 mg/L; in assay [2] (setting [16]) it was 0.781 mg/L; in assay [3] (setting [17]), 0.391 mg/L; in assay [4] (setting [18]), 0.025 mg/L; in assay [5] (setting [19]), 0.098 mg/L; in assay [6] (setting [20]), 0.781 mg/L. For the same molecule, the MIC in assay [7] (setting [21]) was found to be 0.025 mg/L; with Salmonella typhimurium (setting [22]) it was 0.007 mg/L; in assay [8] (setting [23]), 0.013 mg/L; in [9] (setting [24]), 0.391 mg/L; in [10] (setting [25]) it was 0.781 mg/L; in assay [11] (setting [26]), 0.049 mg/L. Further, the MIC is less than 0.002 mg/L in the assay on Escherichia coli O 78 (Mueller-Hinton agar); 0.004 mg/L in [12]; less than 0.002 mg/L in assay [13]; 0.004 mg/L in the assay on Escherichia coil TEM (setting [27]); 0.098 mg/L against Escherichia coil DC 2 (setting [28]); 0.025 mg/L with Escherichia coil 1507E. The MIC with Escherichia coil DC 0 (setting [29]) stood at 0.195 mg/L.
For the molecule `COc1c(N2C[C@@H]3CCCN[C@@H]3C2)c(F)cc2c(=O)c(C(=O)C[N+](=O)[O-])cn(C3CC3)c12.Cl` (racemic) [D, 1-cyclopropyl-3-nitroacetyl-6-fluoro-8-methoxy-7-[(cis-piperidinopyrrolidine)-8-yl]-4-oxo-1,4-dihydroquinoline hydrochloride], the MIC in assay [1] (setting [15]) came out at 0.781 mg/L; in assay [2] (setting [16]) it was 1.563 mg/L; in [3] (setting [17]) it was 0.391 mg/L; in assay [4] (setting [18]) it was 0.391 mg/L; in assay [5] (setting [19]), 0.195 mg/L; in assay [6] (setting [20]), 1.563 mg/L. Moreover, the MIC in assay [7] (setting [21]) was 0.391 mg/L; against Salmonella typhimurium (setting [22]), 0.098 mg/L; in [8] (setting [23]), 0.049 mg/L; in assay [9] (setting [24]), 0.391 mg/L; in [10] (setting [25]), 0.781 mg/L; in [11] (setting [26]), 0.049 mg/L. The MIC against Escherichia coli O 78 (Mueller-Hinton agar) was determined as 0.049 mg/L; in [12], 0.013 mg/L; in assay [13], 0.013 mg/L; in the assay on Escherichia coil TEM (setting [27]) it was 0.098 mg/L; in the assay with Escherichia coil DC 2 (setting [28]) it was 0.098 mg/L; against Escherichia coil 1507E it was 0.098 mg/L. Also, the MIC against Escherichia coil DC 0 (setting [29]) came out at 0.195 mg/L.
As to `O=C(O)c1cn(C2CC2)c2c(Cl)c(N3CC4CCCNC4C3)c(F)cc2c1=O` (stereo not drawn) [A, 1-cyclopropyl-6-fluoro-7-[(trans-piperidinopyrrolidine)-8-yl]-8-chloro-1,4-dihydroguinoline-4-oxo-3-carboxylicacid], the MIC in assay [1] (setting [15]) is 0.781 mg/L (≈ 1.92 µM); in [2] (setting [16]) it was 0.781 mg/L (≈ 1.92 µM); in [3] (setting [17]), 0.098 mg/L (≈ 0.241 µM); in [4] (setting [18]), 0.025 mg/L (≈ 0.0616 µM); in assay [5] (setting [19]) it was 0.025 mg/L (≈ 0.0616 µM); in [6] (setting [20]), 0.391 mg/L (≈ 0.963 µM). In addition, the MIC was 0.025 mg/L (≈ 0.0616 µM) in [7] (setting [21]); less than 0.002 mg/L in the assay on Salmonella typhimurium (setting [22]); 0.049 mg/L (≈ 0.121 µM) in assay [8] (setting [23]); 0.098 mg/L (≈ 0.241 µM) in [9] (setting [24]); 0.781 mg/L (≈ 1.92 µM) in assay [10] (setting [25]); less than 0.002 mg/L in assay [11] (setting [26]). Moreover, the MIC was less than 0.002 mg/L against Escherichia coli O 78 (Mueller-Hinton agar); 0.004 mg/L (≈ 0.00986 µM) in assay [12]; less than 0.002 mg/L in assay [13]; 0.007 mg/L (≈ 0.0172 µM) with Escherichia coil TEM (setting [27]); 0.013 mg/L (≈ 0.032 µM) against Escherichia coil DC 2 (setting [28]); 0.025 mg/L (≈ 0.0616 µM) against Escherichia coil 1507E. Also, in the assay with Escherichia coil DC 0 (setting [29]), the MIC is 0.195 mg/L (≈ 0.48 µM).
For `O=C(O)c1cn(C2CC2)c2cc(N3CCNCC3)c(F)cc2c1=O` [Ciprofloxacin, ciprofloxacin, reference compound], the MIC in assay [1] (Pseudomonas aeruginosa, 1592E, 18 h) was 0.195 mg/L (≈ 0.589 µM); in assay [2] (Pseudomonas aeruginosa, 9027, 18 h) it was 0.391 mg/L (≈ 1.18 µM); in assay [3] (Streptococcus pyogenes, 77A, 18 h) it was 0.781 mg/L (≈ 2.36 µM); in assay [4] (Staphylococcus aureus, 285, 18 h), 0.391 mg/L (≈ 1.18 µM); in [5] (Staphylococcus aureus, SG511, 18 h), 0.195 mg/L (≈ 0.589 µM); in assay [6] (Streptococcus pyogenes, 308A, 18 h) it was 3.12 mg/L (≈ 9.43 µM). For the same molecule, the MIC is 0.781 mg/L (≈ 2.36 µM) in assay [7] (Staphylococcus aureus, 503, 18 h); 0.049 mg/L (≈ 0.148 µM) in assay [14]; 0.007 mg/L (≈ 0.0211 µM) against Salmonella typhimurium (Salmonella enterica, TYPHIMURIUM, 18 h); 0.013 mg/L (≈ 0.0392 µM) in [8] (Klebsiella aerogenes, 1552E, 18 h); 0.781 mg/L (≈ 2.36 µM) in assay [9] (Enterococcus faecium, MD8B, 18 h); 0.195 mg/L (≈ 0.589 µM) in [10] (Pseudomonas aeruginosa, 1771, 18 h). Besides, the minimum inhibitory concentration (MIC) in assay [11] (Klebsiella aerogenes, 1082E, 18 h) was less than 0.002 mg/L; in the assay on Escherichia coli O 78 (O78, Mueller-Hinton agar, read-out: MIC), less than 0.002 mg/L; in the assay with Escherichia coil TEM (Escherichia, 18 h) it was 0.007 mg/L (≈ 0.0211 µM); in the assay on Escherichia coil DC 2 (Escherichia, DC2, 18 h), 0.098 mg/L (≈ 0.296 µM); with Escherichia coil 1507E (read-out: MIC), 0.007 mg/L (≈ 0.0211 µM); against Escherichia coil DC 0 (Escherichia, DC0, 18 h), 0.195 mg/L (≈ 0.589 µM).
